Test results taken from patent US11130726B2, “Therapeutic compounds and methods of use thereof” (GENENTECH, INC., priority 2015, dated 2021).

Target: T1, hNav1.7 (Homo sapiens, UniProt Q15858)
T1 construct: expressed in transfected cells
Assay: Tritiated compound competitive binding to membranes from cells heterologously expressing hNav1.7 and the β1 subunit (LBA)
Conditions: read-out: NaV1.7 (LBA)
Description: Example 19 Tritiated Compound Binding to Membranes Isolated from Cells that Heterologously Express hNav1.7 and the β1 Subunit
Preparation of membranes containing recombinantly expressed sodium channels: Frozen recombinant cell pellets were thawed on ice and diluted to 4 times the cell pellet weight with ice cold 50 mM Tris HCl, pH 7.4 buffer. The cell suspensions were homogenized on ice using a motorized glass dounce homogeniser. Homogenates were further diluted 8.4 times with ice cold 50 mM Tris HC1, pH 7.4 buffer and then centrifuged at 200× g at 4° C. for 15 min. The supernatants were collected and centrifuged at 10000× g at 4° C. for 50 min. The pellets were then re-suspended in 100 mM NaCl, 20 mM Tris HCl, pH 7.4 buffer containing 1% v/v protease inhibitors (Calbiochem) and re-homogenized on ice. The homogenized membranes were then processed through a syringe equipped with a 26 gauge needle. Protein concentrations were determined by Bradford Assay and the membranes were stored at −80° C.
Radioligand Binding Studies: Saturation experiments. A competitive NaV1.7 inhibitor having a methyl group was tritiated. Three tritiums were incorporated in place of methyl hydrogens to generate[^3H]compound. Binding of this radioligand was performed in 5 mL borosilicate glass test tubes at room temperature. Binding was initiated by adding membranes to increasing concentrations of [^3H]compound in 100 mM NaCl, 20 mM Tris HCl, pH 7.4 buffer containing 0.01% w/v bovine serum albumin (BSA) for 18 h. Non-specific binding was determined in the presence of 1 μM unlabeled compound. After 18 h, the reactants were filtered through GF/C glass fiber filters presoaked in 0.5% w/v polyethylene imine. Filters were washed with 15 mL ice cold 100 mM NaCl, 20 mM Tris HCl, pH7.4 buffer containing 0.25% BSA to separate bound from free ligand. [^3H]compound bound to filters was quantified by liquid scintillation counting.
Competitive binding experiments: Binding reactions were performed in 96-well polypropylene plates at room temperature for 18 h. In 360 μL, membranes were incubated with 100 pM [^3H]compound and increasing concentrations of Test Compound. Non-specific binding was defined in the presence of 1 μM unlabeled compound. Reactions were transferred and filtered through 96-well glass fiber/C filter plates presoaked with 0.5% polyethylene imine. The filtered reactions were washed 5 times with 200 μL ice cold buffer containing 0.25% BSA. Bound radioactivity was determined by liquid scintillation counting.
Data Analysis: For saturation experiments, non-specific binding was subtracted from total binding to provide specific binding and these values were recalculated in terms of pmol ligand bound per mg protein. Saturation curves were constructed and dissociation constants were calculated using the single site ligand binding model: Beq=(Bmax*X)/(X+Kd), where Beq is the amount of ligand bound at equilibrium, Bmax is the maximum receptor density, Kd is the dissociation constant for the ligand, and X is the free ligand concentration. For competition studies percent inhibition was determined and IC50 values were calculated using a 4 parameter logistic model (% inhibition=(A+((B−A)/(1+((x/C)^D)))) using XLfit, where A and B are the maximal and minimum inhibition respectively, C is the IC50 concentration and D is the (Hill) slope.

T1 sequence (Q15858 whole entry): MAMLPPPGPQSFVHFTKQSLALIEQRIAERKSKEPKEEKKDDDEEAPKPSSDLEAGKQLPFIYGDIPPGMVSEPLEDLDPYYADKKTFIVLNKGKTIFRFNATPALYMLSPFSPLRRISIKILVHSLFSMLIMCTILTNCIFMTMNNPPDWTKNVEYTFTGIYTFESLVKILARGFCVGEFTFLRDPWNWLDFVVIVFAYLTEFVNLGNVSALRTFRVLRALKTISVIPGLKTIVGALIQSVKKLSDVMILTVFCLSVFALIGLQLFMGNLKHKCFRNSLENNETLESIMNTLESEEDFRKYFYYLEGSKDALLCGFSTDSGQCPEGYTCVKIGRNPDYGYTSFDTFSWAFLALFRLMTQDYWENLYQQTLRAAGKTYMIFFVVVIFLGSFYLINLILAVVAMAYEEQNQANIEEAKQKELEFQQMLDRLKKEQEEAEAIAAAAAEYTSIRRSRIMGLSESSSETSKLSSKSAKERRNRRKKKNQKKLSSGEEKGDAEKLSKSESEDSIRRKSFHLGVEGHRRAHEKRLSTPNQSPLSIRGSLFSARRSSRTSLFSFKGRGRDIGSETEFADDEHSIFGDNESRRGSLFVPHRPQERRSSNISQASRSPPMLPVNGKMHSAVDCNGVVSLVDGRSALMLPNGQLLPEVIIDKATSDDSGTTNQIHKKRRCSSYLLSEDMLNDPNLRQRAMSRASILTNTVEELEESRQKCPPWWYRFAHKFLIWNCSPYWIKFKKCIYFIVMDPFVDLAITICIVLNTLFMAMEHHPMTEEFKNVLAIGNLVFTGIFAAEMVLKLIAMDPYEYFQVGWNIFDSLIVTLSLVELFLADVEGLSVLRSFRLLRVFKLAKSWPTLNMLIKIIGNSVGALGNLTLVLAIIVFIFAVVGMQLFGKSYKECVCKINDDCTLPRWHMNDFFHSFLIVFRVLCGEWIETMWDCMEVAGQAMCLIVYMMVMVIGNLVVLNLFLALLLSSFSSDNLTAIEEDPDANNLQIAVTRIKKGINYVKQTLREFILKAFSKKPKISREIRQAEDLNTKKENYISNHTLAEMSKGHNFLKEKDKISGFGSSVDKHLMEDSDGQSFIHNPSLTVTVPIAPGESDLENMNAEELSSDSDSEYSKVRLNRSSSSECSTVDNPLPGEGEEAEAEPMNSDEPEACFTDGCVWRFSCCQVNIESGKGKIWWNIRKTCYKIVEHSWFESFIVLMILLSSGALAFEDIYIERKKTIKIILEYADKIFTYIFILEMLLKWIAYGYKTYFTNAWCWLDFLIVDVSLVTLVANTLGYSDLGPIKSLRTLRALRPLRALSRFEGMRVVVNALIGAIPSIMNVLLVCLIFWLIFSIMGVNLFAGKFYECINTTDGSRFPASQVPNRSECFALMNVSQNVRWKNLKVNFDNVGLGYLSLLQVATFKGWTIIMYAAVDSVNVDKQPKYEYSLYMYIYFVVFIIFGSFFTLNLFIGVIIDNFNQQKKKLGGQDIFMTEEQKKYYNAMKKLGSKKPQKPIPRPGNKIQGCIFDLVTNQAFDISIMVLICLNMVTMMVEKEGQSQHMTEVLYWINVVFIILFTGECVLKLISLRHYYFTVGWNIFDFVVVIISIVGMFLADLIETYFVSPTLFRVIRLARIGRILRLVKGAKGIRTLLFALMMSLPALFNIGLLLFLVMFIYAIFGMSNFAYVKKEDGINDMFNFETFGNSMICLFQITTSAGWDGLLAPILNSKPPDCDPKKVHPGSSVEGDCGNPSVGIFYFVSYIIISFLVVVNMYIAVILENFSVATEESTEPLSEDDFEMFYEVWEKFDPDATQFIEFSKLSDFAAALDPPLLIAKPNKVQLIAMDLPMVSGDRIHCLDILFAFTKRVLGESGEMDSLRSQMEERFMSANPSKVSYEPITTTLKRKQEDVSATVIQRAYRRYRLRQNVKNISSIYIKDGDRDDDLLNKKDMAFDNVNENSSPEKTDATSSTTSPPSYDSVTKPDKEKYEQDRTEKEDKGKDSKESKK
T1 sequence (Q07699 19-218 partner): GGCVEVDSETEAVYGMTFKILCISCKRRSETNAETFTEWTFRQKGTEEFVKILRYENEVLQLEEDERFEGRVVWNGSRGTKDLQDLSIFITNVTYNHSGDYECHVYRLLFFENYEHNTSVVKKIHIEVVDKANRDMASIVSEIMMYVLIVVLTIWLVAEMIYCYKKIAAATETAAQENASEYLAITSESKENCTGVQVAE

Row | IC50 [µM] | Structure (SMILES)
1 | 0.76 | O=C(O)[C@@H]1CC[C@H]1C(=O)c1cc(C2CC2)c(OCC23CC4CC(CC(C4)C2)C3)cc1F (racemic) [Example 7]
2 | 0.454 | O=C(O)[C@@H]1CCC[C@H]1S(=O)(=O)c1cc(Cl)c(OCC23CC4CC(CC(C4)C2)C3)cc1F (racemic) [Example 15]
3 | 0.86 | O=C(O)[C@@H]1CCC[C@H]1C(=O)c1cc(C2CC2)c(OCc2ccccc2)cc1F (relative stereo) [Example 8, trans-2-(4-(benzyloxy)-5-cyclopropyl-2-fluorobenzoyl)-cyclopentane-1-carboxylic acid]
4 | 0.021 | O=C(O)[C@@H]1CCC[C@H]1C(=O)c1cc(C2CC2)c(COc2cc(Cl)cc(Cl)c2)cc1F (relative stereo) [Example 10, (1,2-trans)-2-(5-cyclopropyl-4-((3,5-dichlorophenoxy)methyl)-2-fluorobenzoyl)cyclopentane-1-carboxylic acid]
5 | > 10 | CN(c1cc(Cl)c(OCC23C[C@H]4C[C@@H](C2)C[C@@H](C3)C4)cc1F)[C@@H]1CCC[C@H]1C(=O)O (relative stereo) [Example 18, 2-(4-(1-adamantylmethoxy)-5-chloro-2-fluoro-N-methylanilino)-cyclopentanecarboxylic acid]
6 | 1.29 | O=C(O)[C@@H]1CCC[C@H]1[S+]([O-])c1cc(Cl)c(OCC23CC4CC(CC(C4)C2)C3)cc1F (stereo in doubt) [Example 16]
7 | 0.009 | O=C(O)[C@@H]1CCC[C@H]1C(=O)c1cc(C2CC2)c(OCC23CC4CC(CC(C4)C2)C3)cc1F [Example 1]
8 | 0.51 | O=C(O)[C@H]1CCC[C@@H]1C(=O)c1cc(C2CC2)c(OCC23CC4CC(CC(C4)C2)C3)cc1F [Example 2]
9 | 4.2 | O=C(c1cc(Cl)c(OCC23CC4CC(CC(C4)C2)C3)cc1F)[C@H]1CCC[C@H]1C(=O)O [Example 3]
10 | 0.44 | O=C(O)[C@@H]1CCC[C@H]1C(=O)c1cc(Cl)c(OCC23CC4CC(CC(C4)C2)C3)cc1F [Example 4]
11 | 3.1 | O=C(O)[C@@H]1CCC[C@H]1Cc1cc(C2CC2)c(OCC23CC4CC(CC(C4)C2)C3)cc1F [Example 5]
12 | 0.055 | O=C(O)[C@@H]1CCCC[C@H]1C(=O)c1cc(C2CC2)c(OCC23CC4CC(CC(C4)C2)C3)cc1F [Example 6]
13 | 0.051 | C[C@@H](c1cc(Cl)cc(Cl)c1)N1CCC(COc2cc(F)c(C(=O)[C@@H]3CCC[C@H]3C(=O)O)cc2C2CC2)CC1 [Example 9, (1,2-trans)-2-(5-cyclopropyl-4-((1-((S)-1-(3,5-dichlorophenyl)ethyl)piperidin-4-yl)methoxy)-2-fluorobenzoyl)cyclopentane-1-carboxylic acid]
14 | 0.7 | C[C@H]1CC[C@@H](C(=O)c2cc(C3CC3)c(OCC34CC5CC(CC(C5)C3)C4)cc2F)[C@@H]1C(=O)O [Example 11]
15 | 0.003 | C[C@@H]1CC[C@H](C(=O)c2cc(C3CC3)c(OCC34CC5CC(CC(C5)C3)C4)cc2F)[C@H]1C(=O)O [Example 12]
16 | 0.021 | O=C(O)[C@@H]1CCC[C@H]1C(=O)c1cc(C2CC2)c(OCC2CCN(Cc3cc(C(F)(F)F)ccc3Cl)CC2)cc1F [Example 13, (1R,2R)-2-(4-((1-(2-chloro-5-(trifluoromethyl)benzyl)piperidin-4-yl)methoxy)-5-cyclopropyl-2-fluorobenzoyl)cyclopentane-1-carboxylic acid]
17 | 2.63 | O=C(O)C1CCCC1Sc1cc(Cl)c(OCC23CC4CC(CC(C4)C2)C3)cc1F (stereo not drawn) [Example 14]
18 | 3.02 | O=C(O)C1CCCC1Nc1cc(Cl)c(OCC23CC4CC(CC(C4)C2)C3)cc1F (stereo not drawn) [Example 17, 2-((4-adamant-1-ylmethoxy)-5-chloro-2-fluoro-anilino)cyclopentanecarboxylic acid]
